Laboratory results taken from patent publication US9861706B2, “GLP-1 receptor agonist peptide gastrin conjugates” (priority 2011, dated 2018).
Where two headings read alike, the source gives them in different places. Square brackets hold non-standard residues; d marks the D form. Ends that are not written are not given here. AEEA = NCCOCCOCC(=O)O

B1: Compound 38 (peptide)
peptide: HGEGTFTSDLSKQLEEEAVRLFIECLKNXXYGWLDF
modifications: not fully specified; C(PEG5K) at position 25; 8Ado at positions 29 and 30; C-terminal amide (-NH2)

How the values were obtained:
[1] = Pharmacokinetics in mice after single subcutaneous dose; format: in vivo, C57BI L/6J mice; conditions: C57BL/6J, mouse, sc
Description: At each time point, samples from two mice were taken. […] Plasma samples were analyzed after solid phase extraction (SPE) by liquid chromatography mass spectrometry (LC-MS/MS).

db/db mice = experiment: Three weeks in vivo db/db mouse study
Description: Treatment Db/db mice were stratified to various treatment groups according to HbA1c levels. Mice were treated once daily with subcutaneous (SC) injections for a total of 21 days. Injection volume was 5 ml/kg. During the study body weights (BW) were recorded daily and used to administer the body weight-corrected doses of peptide. OGTT On day 16, an oral glucose tolerance test was performed in the animals. Blood glucose was measured before glucose (at t=0, baseline) and after glucose administration up to 2 hrs. Termination At termination the blood glucose levels were measured, and blood samples were analyzed for HbA1c levels. Measurements Whole blood glucose concentration (mM) was determined by the immobilized glucose oxidase method (Elite Autoanalyser, Bayer, Denmark). Blood samples were analyzed for HbA1c using the Cobas c111 analyzer (Roche Diagnostics, Mannheim, Germany).

human CCK-B receptor = molecular target: T1, human CCK-B receptor (human, UniProt P32239 1-447); experiment: cell-based or functional assay
T1 sequence (looked up): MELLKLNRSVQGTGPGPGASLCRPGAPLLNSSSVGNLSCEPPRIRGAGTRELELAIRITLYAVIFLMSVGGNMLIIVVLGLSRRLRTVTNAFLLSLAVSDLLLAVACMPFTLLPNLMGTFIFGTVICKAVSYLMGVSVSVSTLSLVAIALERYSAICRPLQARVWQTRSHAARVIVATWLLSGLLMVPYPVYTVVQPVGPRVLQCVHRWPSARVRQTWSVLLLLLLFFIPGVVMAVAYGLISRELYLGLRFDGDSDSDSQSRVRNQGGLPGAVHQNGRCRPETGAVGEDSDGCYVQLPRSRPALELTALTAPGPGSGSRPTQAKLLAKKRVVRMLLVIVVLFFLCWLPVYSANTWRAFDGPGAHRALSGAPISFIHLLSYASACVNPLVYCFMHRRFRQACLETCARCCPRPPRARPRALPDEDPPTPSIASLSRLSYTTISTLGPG

human GLP-1 receptor = human GLP-1 receptor (human, UniProt P43220 24-463); experiment: cell-based or functional assay
Chain of human GLP-1 receptor (P43220 24-463): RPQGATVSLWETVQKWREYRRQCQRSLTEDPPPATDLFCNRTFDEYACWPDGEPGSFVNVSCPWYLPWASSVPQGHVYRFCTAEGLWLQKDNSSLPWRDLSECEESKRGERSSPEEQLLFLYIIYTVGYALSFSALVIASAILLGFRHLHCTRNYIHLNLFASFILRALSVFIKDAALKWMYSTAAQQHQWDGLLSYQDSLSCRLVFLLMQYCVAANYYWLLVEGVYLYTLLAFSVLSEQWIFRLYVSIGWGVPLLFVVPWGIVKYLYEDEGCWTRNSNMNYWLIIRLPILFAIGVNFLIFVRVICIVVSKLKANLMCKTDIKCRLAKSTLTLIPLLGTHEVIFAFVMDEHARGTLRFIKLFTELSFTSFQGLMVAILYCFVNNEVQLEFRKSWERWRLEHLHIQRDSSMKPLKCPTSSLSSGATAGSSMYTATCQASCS

[2] = SC 100 nmol/kg once daily, 21 days treatment

Molecule | half-life ([1]; in vivo, 100 nmol/kg) [h] | EC50, p-ERK in HEK293 cells stably expressing human CCK-B R (human CCK-B receptor) [nM] | EC50, cAMP induction in HEK293 cells expressing human GLP-1 R (human GLP-1 receptor) [nM] | further results
CCCCCCCCCCCCCCCC(=O)N[C@@H](CCC(=O)NCCCC[C@H](NC(=O)[C@H](CCC(=O)O)NC(=O)[C@@H](NC(=O)[C@H](Cc1ccccc1)NC(=O)[C@H](CC(C)C)NC(=O)[C@H](CCCNC(=N)N)NC(=O)[C@@H](NC(=O)[C@H](C)NC(=O)[C@H](CCC(=O)O)NC(=O)[C@H](CCC(=O)O)NC(=O)[C@H](CCC(=O)O)NC(=O)[C@H](CC(C)C)NC(=O)[C@H](Cc1ccc(O)cc1)NC(=O)[C@H](CCCCN)NC(=O)[C@H](CO)NC(=O)[C@H](CC(C)C)NC(=O)[C@H](CCC(=O)O)NC(=O)[C@H](CO)NC(=O)[C@@H](NC(=O)[C@H](Cc1ccccc1)NC(=O)[C@@H](NC(=O)CNC(=O)[C@H](CCC(=O)O)NC(=O)CNC(=O)[C@@H](N)Cc1c[nH]cn1)[C@@H](C)O)[C@@H](C)O)C(C)C)[C@@H](C)CC)C(=O)N[C@@H](CC(C)C)C(=O)N[C@@H](CCCCN)C(=O)NCCOCCOCC(=O)NCCOCCOCC(=O)N[C@@H](Cc1ccc(O)cc1)C(=O)NCC(=O)N[C@@H](Cc1c[nH]c2ccccc12)C(=O)N[C@@H](CC(C)C)C(=O)N[C@@H](CC(=O)O)C(=O)N[C@@H](Cc1ccccc1)C(N)=O)C(=O)O [Compound 7] | – | – | – | half-life ([1]; s.c. administration of 100 nmol/kg in mice, plasma, read-out: T1/2 (converted)): 6.2 h
CC[C@H](C)[C@H](NC(=O)[C@H](Cc1ccccc1)NC(=O)[C@H](CC(C)C)NC(=O)[C@H](CCCNC(=N)N)NC(=O)[C@@H](NC(=O)[C@H](C)NC(=O)[C@H](CCC(=O)O)NC(=O)[C@H](CCC(=O)O)NC(=O)[C@H](CCC(=O)O)NC(=O)[C@H](CC(C)C)NC(=O)[C@H](Cc1ccc(O)cc1)NC(=O)[C@H](CCCCN)NC(=O)[C@H](CO)NC(=O)[C@H](CC(C)C)NC(=O)[C@H](CCC(=O)O)NC(=O)[C@H](CO)NC(=O)[C@@H](NC(=O)[C@H](Cc1ccccc1)NC(=O)[C@@H](NC(=O)CNC(=O)[C@H](CCC(=O)O)NC(=O)CNC(=O)[C@@H](N)Cc1c[nH]cn1)[C@@H](C)O)[C@@H](C)O)C(C)C)C(=O)N[C@@H](CCC(=O)O)C(=O)N[C@@H](Cc1ccccc1)C(=O)N[C@@H](CC(C)C)C(=O)N[C@@H](CCCCN)C(=O)N[C@@H](CC(=O)O)C(=O)N[C@@H](Cc1ccc(O)cc1)C(=O)NCC(=O)N[C@@H](Cc1c[nH]c2ccccc12)C(=O)N[C@@H](CC(C)C)C(=O)N[C@@H](CC(=O)O)C(=O)N[C@@H](Cc1ccccc1)C(N)=O [Compound 12] | 5 | – | – | –
CC[C@H](C)[C@H](NC(=O)[C@H](Cc1ccccc1)NC(=O)[C@H](CC(C)C)NC(=O)[C@H](CCCNC(=N)N)NC(=O)[C@@H](NC(=O)[C@H](C)NC(=O)[C@H](CCC(=O)O)NC(=O)[C@H](CCC(=O)O)NC(=O)[C@H](CCC(=O)O)NC(=O)[C@H](CC(C)C)NC(=O)[C@H](Cc1ccc(O)cc1)NC(=O)[C@H](CCCCN)NC(=O)[C@H](CO)NC(=O)[C@H](CC(C)C)NC(=O)[C@H](CCC(=O)O)NC(=O)[C@H](CO)NC(=O)[C@@H](NC(=O)[C@H](Cc1ccccc1)NC(=O)[C@@H](NC(=O)CNC(=O)[C@H](CCC(=O)O)NC(=O)CNC(=O)[C@@H](N)Cc1c[nH]cn1)[C@@H](C)O)[C@@H](C)O)C(C)C)C(=O)N[C@@H](CCC(=O)O)C(=O)N[C@@H](Cc1ccccc1)C(=O)N[C@@H](CC(C)C)C(=O)N[C@@H](CCCCN)C(=O)N[C@@H](CC(=O)O)C(=O)NCCOCCOCC(=O)NCCOCCOCC(=O)N[C@@H](Cc1ccc(O)cc1)C(=O)NCC(=O)N[C@@H](Cc1c[nH]c2ccccc12)C(=O)N[C@@H](CC(C)C)C(=O)N[C@@H](CC(=O)O)C(=O)N[C@@H](Cc1ccccc1)C(N)=O [Compound 19] | 2.4 | – | – | –
CC[C@H](C)[C@H](NC(=O)[C@H](Cc1ccccc1)NC(=O)[C@H](CC(C)C)NC(=O)[C@H](CCCNC(=N)N)NC(=O)[C@@H](NC(=O)[C@H](C)NC(=O)[C@H](CCC(=O)O)NC(=O)[C@H](CCC(=O)O)NC(=O)[C@H](CCC(=O)O)NC(=O)[C@H](CC(C)C)NC(=O)[C@H](Cc1ccc(O)cc1)NC(=O)[C@H](CCCCN)NC(=O)[C@H](CO)NC(=O)[C@H](CC(C)C)NC(=O)[C@H](CCC(=O)O)NC(=O)[C@H](CO)NC(=O)[C@@H](NC(=O)[C@H](Cc1ccccc1)NC(=O)[C@@H](NC(=O)CNC(=O)[C@H](CCC(=O)O)NC(=O)CNC(=O)[C@@H](N)Cc1c[nH]cn1)[C@@H](C)O)[C@@H](C)O)C(C)C)C(=O)N[C@@H](CCC(=O)O)C(=O)N[C@@H](Cc1c[nH]c2ccccc12)C(=O)N[C@@H](CC(C)C)C(=O)N[C@@H](CCCCN)C(=O)N[C@@H](CC(=O)O)C(=O)N[C@@H](Cc1ccc(O)cc1)C(=O)NCC(=O)N[C@@H](Cc1c[nH]c2ccccc12)C(=O)N[C@@H](CC(C)C)C(=O)N[C@@H](CC(=O)O)C(=O)N[C@@H](Cc1ccccc1)C(N)=O [Compound 23] | 6.7 | – | – | body weight gain (in words) (db/db mice; 3 week course of the study): lowered the body weight gain; Fasted BG level (mM) (db/db mice; SC 100 nmol/kg once daily, 16 days treatment): ++ ((++) indicates fasted BG between 6 and 8 mM); Delta-BW (g) (db/db mice; [2]): ++ ((++) indicates delta BW between 4 and 6 g); Delta-HbA1c (%) (db/db mice; [2]): +++ ((+++) indicates delta-HbA1c level below 0%); OGTT, AUC (mM*min) (db/db mice; SC 100 nmol/kg once daily, after 16 days of treatment): ++ ((++) indicates OGTT AUC between 1000 and 2000M*min); plasma levels of HbA1c (in words) (db/db mice; after 3 weeks treatment): lowered the plasma levels of HbA1c; fasting blood glucose levels (in words) (db/db mice; after 16 days treatment): lowered the fasting blood glucose levels; area under the glucose concentration curve (AUC) following an oral glucose challenge (in words) (db/db mice; day 16): lowered the area under the glucose concentration curve (AUC)
H-HGEGTFTSELSKYLEEEAVRLFIEWLKNYGWLDF-NH2 [Compound 22] | – | – | – | half-life ([1]; in vivo, s.c. administration of 100 nmol/kg in mice, plasma, read-out: T1/2 (converted)): 8.2 h
h[Leu15]Gastrin17 (from UniProt P01350 76-92) (peptide) | – | 2.89 | – | –
HGEGTFTSELSKYLEEEAVRLFIEWLKNYGWLDF-NH2 [Compound 22] | – | 31 | 0.085 | –
B1 | – | 61 | 0.037 | –
HGEGTFTSELSKYLEEEAVRLFIEC(PEG20K)LK[AEEA][AEEA]YGWLDF-NH2 (not fully specified) [Compound 40] | – | 133 | 0.37 | –
